Measured values taken from US20150045410A1, “METHOD OF REGULATING CFTR EXPRESSION AND PROCESSING” (University of Iowa Research Foundation, priority 2012, published 2015).

Test system: CFTR
Test: CFTR mRNA (RT-qPCR) and protein (immunoblot) in Calu-3 cells
Format: cell-based, human
Conditions: mRNA 24 hrs, protein 72 hrs post-transfection
Description: Freshly dissociated human airway epithelial cells or immortalized cell lines were transfected in pre-coated 96 well plates (Costar) or Transwell™ Permeable Supports (0.33 cm^2 0.4 μm polyester membrane, Costar 3470). Lipofectamine™ RNAiMAX (Invitrogen) was used as a reverse transfection reagent. Pre-coated (with human placental collagen Type IV, Sigma) substrates were incubated with the transfection mix comprising of Opti-MEM (Invitrogen), oligonucleotide (Integrated DNA Technologies) and Lipofectamine™ RNAiMAX (Invitrogen). 15-20 minutes later, 200,000 freshly dissociated cells suspended in DMEM/F-12 were added to each well/insert. Between 4-6 hrs later, all media from the apical surface was aspirated and complete media added to the basolateral surface. […]
First-strand cDNA was synthesized using SuperScript® II (Invitrogen), and oligo-dT and random-hexamer primers. […] To quantitate miRNAs, TaqMan® microRNA Assays (Applied Biosystems) were obtained for miR-138, RNU48 (control) and 8 other miRNAs (negative control, miRs-21, -24, -26a, -200c, -146a, -146b, -27a*, -134). […] All experiments were performed in quadruplicate. mRNA and miRNA quantification in cell lines represents 8 independent transfections in 4 separate experiments. mRNA quantification in human primary airway epithelial cultures represent 8 independent transfections in 8 non-CF donors and 4 CF donors. […]

## SIN3A DsiRNA: Dicer-substrate siRNA against SIN3A, sense SEQ ID NO: 6, antisense SEQ ID NO: 7 (sense GCGAUACAUGAAUUCAGAUACUACC; antisense GGUAGUAUCUGAAUUCAUGUAUCGCUC; chemistry not given here)
  CFTR mRNA and protein levels: increased

## miR-138 mimic: synthetic modified RNA duplex, sense SEQ ID NO: 4, antisense SEQ ID NO: 5, showing miR-138-like activity
  CFTR mRNA and protein levels: increased
